Experimental data as given in patent publication US20090253709A1 (NATIONAL DEFENSE MEDICAL CENTER, priority 2008, published 2009).

How the values were obtained:
Assay in all cases: In vitro cytotoxicity, Development Therapeutics Program
Assay type in all cases: cell-based
[1] = system: MCF7; settings: MCF7, breast cancer; 1.0×10^−5 M
How it was run: (§1)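 Test compound added to cultured cancer cells at 1.0×10^−5 M, then inhibition measured in vitro under the US Development Therapeutics Program screen.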

[2] = system: HCT-15; settings: HCT-15, colon cancer; 1.0×10^−5 M
How it was run: as §1

[3] = system: UACC-257; settings: UACC-257, melanoma; 1.0×10^−5 M
How it was run: as §1

[4] = system: BT-549; settings: BT-549, breast cancer; 1.0×10^−5 M
How it was run: as §1

[5] = system: HOP-92; settings: HOP-92, non-small cell lung cancer; 1.0×10^−5 M
How it was run: as §1

[6] = system: SR; settings: leukemia, 1.0×10^−5 M
How it was run: as §1

[7] = system: OVCAR-3; settings: OVCAR-3, ovarian cancer; 1.0×10^−5 M
How it was run: as §1

[8] = system: NCl-H226; settings: NCl-H226, non-small cell lung cancer; 1.0×10^−5 M
How it was run: as §1

[9] = system: OVCAR-8; settings: OVCAR-8, ovarian cancer; 1.0×10^−5 M
How it was run: as §1

[10] = system: SNB-75; settings: SNB-75, CNS cancer; 1.0×10^−5 M
How it was run: as §1

[11] = system: K-562; settings: K-562, leukemia; 1.0×10^−5 M
How it was run: as §1

[12] = system: M14; settings: M14, melanoma; 1.0×10^−5 M
How it was run: as §1

[13] = system: SK-MEL-2; settings: SK-MEL-2, melanoma; 1.0×10^−5 M
How it was run: as §1

[14] = system: UACC-62; settings: UACC-62, melanoma; 1.0×10^−5 M
How it was run: as §1

[15] = system: 786-0; settings: 786-0, renal cancer; 1.0×10^−5 M
How it was run: as §1

[16] = system: NCI/ADR-RES; settings: breast cancer, 1.0×10^−5 M
How it was run: as §1

[17] = system: NCl-H322M; settings: non-small cell lung cancer, 1.0×10^−5 M
How it was run: as §1

[18] = system: KM12; settings: KM12, colon cancer; 1.0×10^−5 M
How it was run: as §1

[19] = system: SNB-19; settings: SNB-19, CNS cancer; 1.0×10^−5 M
How it was run: as §1

[20] = system: NCl-H522; settings: NCl-H522, non-small cell lung cancer; 1.0×10^−5 M
How it was run: as §1

[21] = system: HS 578T; settings: breast cancer, 1.0×10^−5 M
How it was run: as §1

[22] = system: SF-268; settings: SF-268, CNS cancer; 1.0×10^−5 M
How it was run: as §1

[23] = system: MDA-MB-435; settings: MDA-MB-435, breast cancer; 1.0×10^−5 M
How it was run: as §1

[24] = system: OVCAR-5; settings: OVCAR-5, ovarian cancer; 1.0×10^−5 M
How it was run: as §1

[25] = system: SK-MEL-28; settings: SK-MEL-28, melanoma; 1.0×10^−5 M
How it was run: as §1

[26] = system: LOX IMVI; settings: melanoma, 1.0×10^−5 M
How it was run: as §1

[27] = system: SK-OV-3; settings: SK-OV-3, ovarian cancer; 1.0×10^−5 M
How it was run: as §1

[28] = system: HOP-62; settings: HOP-62, non-small cell lung cancer; 1.0×10^−5 M
How it was run: as §1

[29] = system: HCT-116; settings: HCT-116, colon cancer; 1.0×10^−5 M
How it was run: as §1

[30] = system: MDA-MB-231/ATCC; settings: breast cancer, 1.0×10^−5 M
How it was run: as §1

[31] = system: RPMI-8226; settings: RPMI-8226, leukemia; 1.0×10^−5 M
How it was run: as §1

[32] = system: SW-620; settings: SW-620, colon cancer; 1.0×10^−5 M
How it was run: as §1

[33] = system: A498; settings: A498, renal cancer; 1.0×10^−5 M
How it was run: as §1

[34] = system: CCRF-CEM; settings: leukemia, 1.0×10^−5 M
How it was run: as §1

[35] = system: SN12C; settings: renal cancer, 1.0×10^−5 M
How it was run: as §1

[36] = system: PC-3; settings: PC-3, prostate cancer; 1.0×10^−5 M
How it was run: as §1

[37] = system: MOLT-4; settings: MOLT-4, leukemia; 1.0×10^−5 M
How it was run: as §1

[38] = system: ACHN; settings: renal cancer, 1.0×10^−5 M
How it was run: as §1

| Compound | Cellular growth rate (%) [1] [%] | Cellular growth rate (%) [2] [%] | Cellular growth rate (%) [3] [%] | Cellular growth rate (%) [4] [%] | Cellular growth rate (%) [5] [%] | Cellular growth rate (%) [6] [%] | Cellular growth rate (%) [7] [%] | Cellular growth rate (%) [8] [%] | Cellular growth rate (%) [9] [%] | Cellular growth rate (%) [10] [%] | Cellular growth rate (%) [11] [%] | Cellular growth rate (%) [12] [%] | Cellular growth rate (%) [13] [%] | Cellular growth rate (%) [14] [%] | Cellular growth rate (%) [15] [%] | Cellular growth rate (%) [16] [%] | Cellular growth rate (%) [17] [%] | Cellular growth rate (%) [18] [%] | Cellular growth rate (%) [19] [%] | Cellular growth rate (%) [20] [%] | also measured |
| --- | --- | --- | --- | --- | --- | --- | --- | --- | --- | --- | --- | --- | --- | --- | --- | --- | --- | --- | --- | --- | --- |
| CC(=O)Nc1ccc2c(c1)C(=O)c1cc(NC(C)=O)ccc1C2=O [Compound 26, 2,7-Bis(acetamido)anthraquinone] | 96.90 | 93.93 | 26.97 | 93.29 | 101.26 | 3.61 | 111.06 | 104.51 | 99.85 | 106.91 | 98.54 | 105.11 | 30.15 | 101.24 | 97.72 | 114.26 | 97.50 | 105.94 | 94.40 | 93.56 | Cellular growth rate (%) [21]: 133.05%; Cellular growth rate (%) [22]: 113.68%; Cellular growth rate (%) [23]: 109.48%; Cellular growth rate (%) [24]: 102.27%; Cellular growth rate (%) [25]: 117.60%; Cellular growth rate (%) [26]: 99.05%; Cellular growth rate (%) [27]: 101.12%; Cellular growth rate (%) [28]: 110.60%; Cellular growth rate (%) [29]: 101.91%; Cellular growth rate (%) [30]: 103.99%; Cellular growth rate (%) [31]: 121.47%; Cellular growth rate (%) [32]: 103.21%; Cellular growth rate (%) [33]: 115.60%; Cellular growth rate (%) [34]: 99.77%; Cellular growth rate (%) [35]: 113.35%; Cellular growth rate (%) [36]: 102.73%; Cellular growth rate (%) [37]: 96.96%; Cellular growth rate (%) [38]: 96.93% |
| O=C1c2ccc(NC(=O)C3CC3)cc2C(=O)c2cc(NC(=O)C3CC3)ccc21 [Compound 32, 2,7-Bis(cyclopropanecarbonamido)anthraquinone] | 77.38 | 86.35 | 107.63 | 92.51 | 86.18 | 1.69 | 103.35 | 100.60 | 94.34 | 89.23 | 91.60 | 98.89 | 16.85 | 81.00 | 94.92 | 90.83 | 105.77 | 92.67 | 98.79 | 89.41 | Cellular growth rate (%) [21]: 118.90%; Cellular growth rate (%) [22]: 95.09%; Cellular growth rate (%) [23]: 97.35%; Cellular growth rate (%) [24]: 112.01%; Cellular growth rate (%) [25]: 108.51%; Cellular growth rate (%) [26]: 90.27%; Cellular growth rate (%) [27]: 93.16%; Cellular growth rate (%) [28]: 91.64%; Cellular growth rate (%) [29]: 87.14%; Cellular growth rate (%) [30]: 97.05%; Cellular growth rate (%) [31]: 88.38%; Cellular growth rate (%) [32]: 104.75%; Cellular growth rate (%) [33]: 92.35%; Cellular growth rate (%) [34]: 90.67%; Cellular growth rate (%) [35]: 82.93%; Cellular growth rate (%) [36]: 106.89%; Cellular growth rate (%) [37]: 94.29%; Cellular growth rate (%) [38]: 86.70% |
